Columns and labels:
Caki-1 cells [1] = test: Caki-1 xenograft tumor growth in nude mice; format: in vivo, Nu/Nu mice; settings: for tumor size and weight at sacrifice versus vehicle: tolvaptan 120 mg/Kg daily oral gavage or dDAVP 1 μg/Kg daily IP
Method: Female Athymic Nude-Foxn1^nu mice (Nu/Nu mice), 7-8 weeks old and weighing ˜25 g were procured from Envigo/Harlan. All animal studies were carried out according to the protocols approved by the University of Kansas Medical Center Institutional Animal Care and Use Committee. Mice were subcutaneously injected on the right flank region with 1×10^6 Caki-1 cells in 100 μl of DMEM medium. […] Once the tumor volume reached ˜80-100 mm^3, mice were randomized into sub-groups based on the tumor volume. Animals were administered vehicle, OPC31260 (30 mg/Kg BWt.), OPC31260 (60 mg/Kg BWt) or dDAVP (1 μg/Kg BWt.) and vehicle (saline) by daily intraperitoneal injection, (60 mg/Kg BWt) or dDAVP (1 μg/Kg BWt.) and vehicle (saline) by daily intraperitoneal injection, or tolvaptan (120 mg/Kg BWt. in 1% aqueous solution of hydroxypropyl methylcellulose-dose derived from previous study^31) or vehicle by daily oral gavage for 28 days. Body weights and tumor volumes were measured every alternate day. At the end of the study, mice were injected with BRDU (100 mg/Kg BWt. by IP) 90 minutes before sacrifice. Tumors were harvested, photographed and weighed. Tumors were flash frozen or paraffin embedded for further analysis.

Caki-2 = settings: Caki-2, in vitro; cited from earlier work
[2] = tested on: pERK1/2, ERK1/2, pCREB, CREB, VEGF; test: Immunoblotting of xenograft tumor lysates; format: in vivo, Nu/Nu mice; settings: for VEGF protein levels in tumors compared to vehicle: OPC31260 IP, daily 28 days
Method: (§1) Female Athymic Nude-Foxn1^nu mice (Nu/Nu mice), 7-8 weeks old and weighing ˜25 g were procured from Envigo/Harlan. All animal studies were carried out according to the protocols approved by the University of Kansas Medical Center Institutional Animal Care and Use Committee. Mice were subcutaneously injected on the right flank region with 1×10^6 Caki-1 cells in 100 μl of DMEM medium. One week after injection, palpable tumors appeared and tumor volume was measured with calipers following the formula, […]. Once the tumor volume reached ˜80-100 mm^3, mice were randomized into sub-groups based on the tumor volume. Animals were administered vehicle, OPC31260 (30 mg/Kg BWt.), OPC31260 (60 mg/Kg BWt) or dDAVP (1 μg/Kg BWt.) and vehicle (saline) by daily intraperitoneal injection, or tolvaptan (120 mg/Kg BWt. in 1% aqueous solution of hydroxypropyl methylcellulose-dose derived from previous study^31) or vehicle by daily oral gavage for 28 days. Body weights and tumor volumes were measured every alternate day. At the end of the study, mice were injected with BRDU (100 mg/Kg BWt. by IP) 90 minutes before sacrifice. Tumors were harvested, photographed and weighed. Tumors were flash frozen or paraffin embedded for further analysis.
Tumors from mouse xenografts and cultured 786-O and Caki-1 cells were homogenized in SDS Laemmli buffer and loaded onto 10% SDS-polyacrylamide agarose gel electrophoresis gels, transferred to nitrocellulose membranes and blocked with 5% milk in TBST^32. Membranes were probed with primary antibody followed by wash and horseradish peroxidase secondary antibody application.

A498 cells = settings: A498, in vitro; cited from earlier work
Caki-1 cells [3] = test: Immunostaining of xenograft tumor sections (Ki-67, BRDU, CD31); format: in vivo, Nu/Nu mice; settings: for BRDU staining / incorporation of tumors compared to vehicle / Ki-67 staining of tumors compared to vehicle / tumor micro-vessel density (CD31 staining): OPC31260 IP, tolvaptan 120 mg/Kg oral, dDAVP 1 μg/Kg IP, daily 28 days
Method: as §1
Tumor tissues were fixed overnight in 4% paraformaldehyde, dehydrated in a graded alcohol series, and embedded in paraffin for histological analysis as previously described^26. Slides with 5 μm tissue sections were heated in a steamer for 20 min in citrate buffer (pH 6.0) to unmask antigens. Slides were further blocked with 10% goat serum (Invitrogen) and then incubated overnight with primary antibody (V2R, CD31, BRDU, Ki67 and p-H3). After washing the slides with PBST, slides were incubated with appropriate fluorescence-labeled secondary antibody (Invitrogen) and streptavidin HRP conjugated (Invitrogen) secondary antibody for immunoflurorescence and immunohistochemistry, respectively. Slides were also incubated in 4′,6-diamidino-2-phenylindole to visualize nuclei. For immunofluorescence staining, slides were mounted with Fluoromount G (Southern Biotech). For immunohistochemistry, slides were developed with DAB (Vector Laboratories) and counterstained with Harris haematoxylin, dehydrated, and mounted with Permount (Fisher Scientific, Waltham, Mass.). All images were captured using a Nikon 80i microscope (Tokyo, Japan) at the KUMC Imaging Center.

[4] = format: in vivo; settings: tolvaptan 120 mg/Kg daily oral gavage or dDAVP 1 μg/Kg daily IP, 28 days; for urine osmolality: data not shown
Method: as §1

CCRCC = test: Immunocompetent animal model of spontaneous CCRCC; format: in vivo, Vh1Δ/ΔTrp53Δ/ΔRb1Δ/Δ mice; settings: treatment from 30 weeks after start of tamoxifen till 56 weeks
Excerpt: The Vh1^Δ/ΔTrp53^Δ/ΔRb1^Δ/Δ mice (Harlander S et al, Nat Med 2017 23(7):869-877) can spontaneously develop CCRCC. Gene deletion of Vhl and tumor suppressors p53 and Rb 1 will be achieved using a Ksp1.3-CreERT2, tamoxifen-inducible system. For the studies, 6-week old Vh1^Δ/ΔTrp53^Δ/ΔRb1^Δ/ΔKsp1.3-CreERT2 mice will be treated with vehicle (saline) or tamoxifen for 14 days used to obtain wildtype control mice and Vh1^Δ/ΔTrp53^Δ/ΔRb1^Δ/Δ mice with RCC stumors. Starting 30 weeks after start of tamoxifen, the wildtype and Vh1^Δ/ΔTrp53^Δ/ΔRb1^Δ/Δ mice will be treated with vehicle, dDAVP, OPC31260, or tolvaptan till 56 weeks. The effect of V2R activation or inhibition will be monitored by MRI as well as by gross and pathological analysis and of kidneys at sacrifice.

Caki-1 cells [5] = test: TUNEL assay for apoptosis in xenograft tumor sections; format: in vivo, Nu/Nu mice; settings: OPC31260 IP, tolvaptan 120 mg/Kg oral, dDAVP 1 μg/Kg IP, daily 28 days
Method: as §1
TUNEL assays were performed to check apoptosis using the in situ Cell Death Detection Kit (Roche Applied Science, Indianapolis, Ind.). Briefly, slides with 5-μm tumor sections were treated to a TUNEL reaction mixture containing terminal deoxynucleotidyl transferase and nucleotides, including tetramethylrhodamine-labeled dUTP. Both Dapi stained and TUNEL-positive nuclei were counted as described for proliferating cell nuclear antigen. All images were captured using a Nikon 80i microscope (Tokyo, Japan) in the KUMC Imaging Center.

V2R [6] = molecular target: T1, V2R (Homo sapiens, UniProt P30518); settings: cited from earlier work
T1 sequence (P30518 whole entry): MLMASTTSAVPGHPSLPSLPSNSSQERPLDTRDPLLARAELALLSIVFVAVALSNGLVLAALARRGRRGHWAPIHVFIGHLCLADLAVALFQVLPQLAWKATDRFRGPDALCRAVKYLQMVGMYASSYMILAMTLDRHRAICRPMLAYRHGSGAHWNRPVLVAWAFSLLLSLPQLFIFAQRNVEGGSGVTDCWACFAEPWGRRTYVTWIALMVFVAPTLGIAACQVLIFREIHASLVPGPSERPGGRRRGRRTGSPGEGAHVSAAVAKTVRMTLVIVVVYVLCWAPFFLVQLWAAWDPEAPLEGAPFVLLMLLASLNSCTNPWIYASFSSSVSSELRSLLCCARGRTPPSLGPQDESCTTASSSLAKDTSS

V1bR = molecular target: T2, V1bR (Homo sapiens, UniProt P47901); settings: cited from earlier work
T2 sequence (P47901 1-424): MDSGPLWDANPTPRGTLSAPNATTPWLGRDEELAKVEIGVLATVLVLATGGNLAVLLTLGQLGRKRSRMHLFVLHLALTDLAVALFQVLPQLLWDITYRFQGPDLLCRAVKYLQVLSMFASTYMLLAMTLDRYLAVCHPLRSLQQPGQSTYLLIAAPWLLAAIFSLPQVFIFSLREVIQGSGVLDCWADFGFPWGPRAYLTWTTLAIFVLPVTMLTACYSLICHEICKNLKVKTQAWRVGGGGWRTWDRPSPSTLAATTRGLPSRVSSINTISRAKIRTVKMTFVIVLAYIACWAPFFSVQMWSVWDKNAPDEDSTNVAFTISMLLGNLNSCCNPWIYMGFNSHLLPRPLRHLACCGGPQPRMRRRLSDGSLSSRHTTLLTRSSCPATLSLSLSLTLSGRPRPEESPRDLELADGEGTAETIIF

[7] = humans; cited from earlier work
V2R [8] = molecular target: T1, V2R; settings: cited from earlier work; remark: listed apart in the source
[9] = in vivo; cited from earlier work
[10] = dDAVP 1 μg/Kg daily IP injection, day 28
[11] = OPC31260 30/60 mg/kg IP, tolvaptan 120 mg/Kg oral, dDAVP 1 μg/Kg IP, 28 days
[12] = tolvaptan 120 mg/Kg oral, dDAVP 1 μg/Kg IP

| Structure (SMILES) | tumor size and weight at sacrifice versus vehicle (Caki-1 cells [1]; 28 days) | pCREB levels in tumor lysates [2, 11] | pERK1/2 levels in tumor lysates [2, 11] | VEGF protein levels in tumors compared to vehicle [2, 12] | BRDU staining / incorporation of tumors compared to vehicle (Caki-1 cells [3]) | Ki-67 staining of tumors compared to vehicle (Caki-1 cells [3]) | tumor micro-vessel density (CD31 staining) (Caki-1 cells [3]) | body weight of the mice [4] | toxicity [4] | urine osmolality [4] | expected tumor burden / tumor growth (CCRCC) | TUNEL staining of tumors compared to vehicle (Caki-1 cells [5]) | other results |
| --- | --- | --- | --- | --- | --- | --- | --- | --- | --- | --- | --- | --- | --- |
| NC(=O)CC[C@@H]1NC(=O)[C@H](Cc2ccccc2)NC(=O)[C@H](Cc2ccc(O)cc2)NC(=O)CCSSC[C@@H](C(=O)N2CCC[C@H]2C(=O)N[C@H](CCCN=C(N)N)C(=O)NCC(N)=O)NC(=O)[C@H](CC(N)=O)NC1=O [dDAVP, 1-desamino-8-d-arginine vasopressin] | larger than in the vehicle group | increased | reduced | did not affect | no significant change | significant increase | increased | did not significantly change | minimal obvious toxicity | increased | increased tumor burden | no significant change | tumor volume till day 21 (Caki-1 cells [1]; dDAVP 1 μg/Kg daily IP injection): did not increase significantly; tumor volume by day 28, higher than its baseline (Caki-1 cells [1]; [10]): 16 fold; tumor volume by day 28, higher than vehicle group (Caki-1 cells [1]; [10]): 2 fold; proliferation on V2R activation (Caki-2): increased proliferation; ERK1/2 levels in tumor lysates ([2]; dDAVP 1 μg/Kg IP, 28 days): reduced; proliferation on V2R activation (A498 cells): increased proliferation |
| CCOc1ccc2c(c1)C1(CCC(OCCN3CCOCC3)CC1)C(=O)N2S(=O)(=O)c1ccc(C(=O)NC(C)(C)C)cc1OC (stereo not drawn) [satavaptan] |  |  |  |  |  |  |  |  |  |  |  |  | effect on dDAVP-induced proliferation (Caki-2): abolished dDAVP-induced proliferation; effect on time-dependent increase in cell proliferation (baseline) (Caki-2): did not reduce; effect on dDAVP-induced proliferation (A498 cells): abolished dDAVP-induced proliferation; effect on time-dependent increase in cell proliferation (baseline) (A498 cells): did not reduce |
| Cc1ccccc1C(=O)Nc1ccc(C(=O)N2CCCC(O)c3cc(Cl)ccc32)c(C)c1 (stereo not drawn) [tolvaptan, N-[4-[(7-chloro-2,3,4,5-tetrahydro-5-hydroxy-1H-1-benzazepin-1-yl)carbonyl]-3-methylphenyl]-2-methylbenzamide] | smaller and weighed significantly less | reduced | reduced | significantly reduced | significantly reduced | significantly reduced | did not appear to alter | did not significantly change | minimal obvious toxicity | significantly reduced | significantly suppress tumor growth | increased | tumor volume versus vehicle (Caki-1 cells [1]; tolvaptan 120 mg/Kg daily oral gavage, 28 days): significantly reduced; CREB levels in tumor lysates ([2]; OPC31260 30/60 mg/kg IP, tolvaptan 120 mg/Kg oral, 28 days): reduced; effect on cell proliferation and apoptosis compared with OPC31260 (Caki-1 cells [3]; tolvaptan 120 mg/Kg oral versus OPC31260 IP): relatively lower than that of OPC31260; selectivity in blocking [3H]AVP binding to human V2R than V1aR (V2R [6]): 29 fold; inhibition of V1bR (V1bR): does not inhibit; mean absolute bioavailability [7]: 56%; intrinsic V2R agonistic effect (V2R [8]): no intrinsic V2R agonistic effect; oral activity compared with OPC31260 [9]: relatively better oral activity than OPC31260 |

Source: patent publication US11110098B2, “Methods and medicaments for the treatment of renal cell carcinoma” (University of Kansas, priority 2017, dated 2021)
